According to US20220031680A1, “Donecopride As Neuroprotective Agent In the Treatment of Neurodegenerative Diseases” (priority 2018, published 2022):

Key:
Type in all cases: in vivo, mouse
[1] = tested on: 5×FAD mice; experiment: Novel object recognition test in 5×FAD mice; settings: 1 mg/kg twice a week for 3 months; 24 h inter-session interval
Description: (§1) Animal experiments were carried out in accordance with the Directive by the Council of the European Communities of Nov. 24, 1986 (86/609/EEC). All efforts were made to minimize animal suffering and to reduce the number of mice used. The generation of 5×FAD mice was described in Oakley et al. (2006) J. Neurosci. 26:10129-10140. These transgenic mice overexpress both human APP (695) harboring the Swedish (K670N, M671L), Florida (1716V) and London (V7171) familial AD (FAD) mutations and human Presenilin 1 (PS1) harboring the two FAD mutations M146L and L286V. Expression of both transgenes is regulated by neuronal-specific elements of the mouse Thy1 promoter. The 5×FAD strain (B6/SJL genetic background) was maintained by crossing hemizygous transgenic mice with B6/SJL F1 breeders. The 5×FAD strain (C57BL/6J genetic background) was maintained by crossing hemizygous transgenic mice with C57BL/6J F1 breeders. All animals were genotyped by PCR using tail genomic DNA. Transgenic and WT mice were bred in our animal facility, had access to food and water ad libitum and were housed under a 12 h light-dark cycle at 22-24° C. Female 5×FAD mice were used in this study. For each experiment, the age of mice is indicated in months (with a two-week range).
(§2) Compounds were resuspended in DMSO (37.5 μg/μl, stored at −20° C.) and freshly diluted 1:250 in 0.9% NaCl prior administration. Vehicle solution (0.9% NaCl, 0.4% DMSO) was used as control.
5×FAD mice received chronic treatments with drugs or vehicle according to 2 different protocols. In each experiment, drugs or vehicle solution were administered i.p. twice a week (1 mg/kg). […]
The cognitive performance of mice was tested using the novel object recognition (NOR) test (Bevins and Besheer (2006) Nat. Protoc. 1:1306-1311). […] The whole experiment was video-recorded and object exploration [time spent by the mouse nose in contact with the object or by sniffing it at a distance s 1 cm] was blindly measured. […] A discrimination index was also calculated ([novel−familiar]/[familiar+novel]). […]

[2] = tested on: Aβ42; experiment: Aβ42 concentration in cerebrospinal fluid of 5×FAD mice; settings: 1 mg/kg twice a week for 3 months; compared to controls
Description: 5×FAD mice received chronic treatments with drugs or vehicle according to 2 different protocols. In each experiment, drugs or vehicle solution were administered i.p. twice a week (1 mg/kg). In “Protocol 1”, mice (n=6-7 mice per group) were treated with compounds for two months, from 2 to 4 months of age. In “Protocol 2”, mice (n=7) were treated with compounds for three months, from 1 month to 4 months of age. At the end of each protocol, mice were anesthetized with a mixture of 100 mg/kg ketamine and 10 mg/kg xylazine in saline solution and perfused transcardially with PBS. Brains were quickly isolated on ice, the olfactory bulbs and cerebellum removed and the two hemispheres divided. One hemisphere was frozen on dry ice and stored at −80° C. for biochemical analysis, while the other was post-fixed in 4% PFA for immunohistochemistry (IHC).
Mice were anesthetized and mounted onto a stereotaxic instrument. The neck skin was cut and subcutaneous tissue and muscles separated with the help of micro-retractors (Fine Science Tools, Heidelberg, Germany). Mice were then laid down so that the head formed an angle of about 135° with the body (Liu and Duff (2008) J. Vis. Exp. 10:960). A capillary tube (Borosilicate glass, B100-75-10, Sutter Instruments, Novato, Calif., USA) was used to punch the dura mater of the cisterna magna. CSF was collected by capillary action and transferred to 0.5 mL microtubes, immediately frozen on dry ice and stored at −80° C. until use. Once thawed, samples were heated at 60° C. for 5 min as described in the international application WO 2008/009868 and analyzed without further freezing-thawing cycles.
(§3) ELISA kits from IBL International (Hamburg, Germany) for the dosage of Aβ40 (human amyloid β (1-40) assay kit, #27713) or Aβ42 (human amyloid β (1-42) assay kit, #27719) were used according to the manufacturer's instructions. Reactions were read at 620 nm and 450 nm using an Infinite 2000 luminescence counter. The obtained values were normalized to the protein concentration of each sample, measured using a BCA protein assay (Sigma-Aldrich). […]

[3] = tested on: Aβ40; experiment: Aβ40 levels in brain extracts of 5×FAD mice (ELISA); settings: brain extract; 1 mg/kg i.p. twice a week for two months, 2 to 4 months of age
Description: as §1, §2
5×FAD mice received chronic treatments with drugs or vehicle according to 2 different protocols. In each experiment, drugs or vehicle solution were administered i.p. twice a week (1 mg/kg). In “Protocol 1”, mice (n=6-7 mice per group) were treated with compounds for two months, from 2 to 4 months of age. In “Protocol 2”, mice (n=7) were treated with compounds for three months, from 1 month to 4 months of age. At the end of each protocol, mice were anesthetized with a mixture of 100 mg/kg ketamine and 10 mg/kg xylazine in saline solution and perfused transcardially with PBS. Brains were quickly isolated on ice, the olfactory bulbs and cerebellum removed and the two hemispheres divided. […]
as §3
Aβ40 and Aβ42 were quantified from brain extract in soluble and insoluble fractions. […]

SMILES	recognition memory, exploration of novel vs familiar object (NOR) [1]	Aβ42 concentration in cerebrospinal fluid (CSF) [2]	Aβ40, insoluble fraction (% of controls) [3]	Aβ40, soluble fraction (% of controls) [3]
COc1cc(N)c(Cl)cc1C(=O)CCC1CCN(CC2CCCCC2)CC1 [Donecopride]	prevent memory alteration	not significantly different	79.97 % of controls	110.18 % of controls
COc1cc(N)c(F)cc1C(=O)CCC1CCN(CC2CCCCC2)CC1 [Flucopride]	prevent memory alteration	not significantly different	97.16 % of controls	110.51 % of controls
